Strand notation (5' to 3'): a small letter for the sugar, then the base; units joined by * are phosphorothioate-linked, units joined directly phosphodiester-linked; [ ] holds rarer units or linkages, { } end groups; capitals alone tell only the bases. e = 2'-O-(2-methoxyethyl) (MOE); [5mC] = 5-methylcytosine; d = 2'-deoxy (DNA)
Legend:
Factor 11 protein = Factor 11 protein in monkey plasma by sandwich ELISA (Example 46); assay type: in vivo, cynomolgus monkeys; conditions: for Factor 11 protein levels in plasma: cynomolgus monkeys, 25 mg/kg; for Inhibition of Factor 11 protein relative to the PBS control (percentage reduction): 25 mg/kg subcutaneously
Protocol: (§1) Groups, each consisting of two male and two female monkeys, were injected subcutaneously with 25 mg/kg of ISIS 416850, ISIS 449709, ISIS 445522, ISIS 449710, ISIS 449707, ISIS 449711, ISIS 449708, 416858, and ISIS 445531. Antisense oligonucleotide was administered to the monkeys at 25 mg/kg three times per week for week 1 and 25 mg/kg twice per week for weeks 2 to 8. A control group, consisting of two male and two female monkeys was injected subcutaneously with PBS according to the same dosing regimen. Body weights were taken 14 days and 7 days before the start of treatment and were then measured weekly throughout the treatment period. Blood samples were collected 14 days and 5 days before the start of treatment and subsequently several times during the dosing regimen for PT and aPTT measurements, and measurement of various hematologic factors. On day 55, the monkeys were euthanized by exsanguination while under deep anesthesia, and organs harvested for further analysis.
Plasma samples from all monkey groups taken on different days were analyzed by a sandwich-style ELISA assay (Affinity Biologicals Inc.) using an affinity-purified polyclonal anti-Factor 11 antibody as the capture antibody and a peroxidase-conjugated polyclonal anti-Factor 11 antibody as the detecting antibody. Monkey plasma was diluted 1:50 for the assay. Peroxidase activity was expressed by incubation with the substrate o-phenylenediamine. The color produced was quantified using a microplate reader at 490 nm and was considered to be proportional to the concentration of Factor 11 in the samples.
The results are presented in Table 147, expressed as percentage reduction relative to that of the PBS control.

Factor 11 mRNA = Factor 11 mRNA in cynomolgus monkey liver, day 55 (Example 46); assay type: in vivo, cynomolgus monkeys; conditions: for Factor 11 mRNA in liver vs PBS control: cynomolgus monkeys, 25 mg/kg; for % inhibition of Factor 11 mRNA in liver relative to the PBS control: 25 mg/kg subcutaneously, primer probe set LTS00301
Method in brief: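 Male and female cynomolgus monkeys (2+2 per group) received antisense oligonucleotides sc at 25 mg/kg, three times weekly in week 1 and twice weekly in weeks 2-8. PBS-dosed animals served as control. Factor 11 mRNA in liver on day 55 was measured by real-time PCR (primer probe set LTS00301) as percent inhibition relative to PBS control.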

[1] = tested on: IL-1β, IL-6, IFN-γ, TNF-α, IL-8, MIP-1α, MCP-1, MIP-1β, RANTES; assay: Cytokine and chemokine assays in cynomolgus monkeys (Example 46); assay type: in vivo
Protocol: as §1
Blood samples obtained from all monkey groups were sent to Pierce Biotechnology (Woburn, Mass.) for measurements of chemokine and cytokine levels. Levels of IL-1β, IL-6, IFN-γ, and TNF-α were measured using the respective primate antibodies and levels of IL-8, MIP-1α, MCP-1, MIP-1β and RANTES were measured using the respective cross-reacting human antibodies. Measurements were taken 14 days before the start of treatment and on day 55, when the monkeys were euthanized.

[2] = Liver function, ALT, AST, bilirubin in cynomolgus monkeys (Example 46); assay type: in vivo; conditions: plasma
Protocol: as §1
Plasma concentrations of alanine transaminase (ALT) and aspartate transaminase (AST) were measured and the results are presented in Tables 152 and 153 expressed in IU/L. Plasma levels of bilirubin were also measured and results are presented in Table 154 expressed in mg/dL. As observed in Tables 152-154, there were no significant increases in any of the liver metabolic markers after antisense oligonucleotide treatment.

[3] = day-14 (before start of treatment)

Substance | Factor 11 protein levels in plasma (Factor 11 protein) | Factor 11 mRNA in liver vs PBS control (Factor 11 mRNA) | IFN-γ level ([1]; day 55) [pg/mL] | IL-1ß level ([1]; day 55) [pg/mL] | IL-6 level ([1]; day 55) [pg/mL] | IL-8 level ([1]; day 55) [pg/mL] | MCP-1 level ([1]; day 55) [pg/mL] | MIP-1ß level ([1]; day 55) [pg/mL] | MIP-1α level ([1]; day 55) [pg/mL] | RANTES level ([1]; day 55) [pg/mL] | TNF-α level ([1]; day 55) [pg/mL] | IFN-γ level [1, 3] [pg/mL] | IL-1ß level [1, 3] [pg/mL] | IL-6 level [1, 3] [pg/mL] | IL-8 level [1, 3] [pg/mL] | MCP-1 level [1, 3] [pg/mL] | MIP-1ß level [1, 3] [pg/mL] | MIP-1α level [1, 3] [pg/mL] | RANTES level [1, 3] [pg/mL] | TNF-α level [1, 3] [pg/mL] | other results
ISIS 416850: MOE gapmer, nucleobases 1275 to 1318 of SEQ ID NO: 1 (Table 8) (antisense TGCACAGTTTCTGGCAGGCC; MOE gapmer, wing and gap sizes not given here) | time-dependent decrease in protein levels | significant reduction of Factor 11 mRNA | 19 | 106 | 1 | 620 | 887 | 50 | 17 | 27503 | 16 | 115 | 215 | 1 | 45 | 434 | 31 | 14 | 4560 | 4 | ALT ([2]; Day 31): 45 IU/L; AST ([2]; Day 31): 46 IU/L; Bilirubin ([2]; Day 31): 0.26 mg/dL; ALT ([2]; Day 55): 55 IU/L; AST ([2]; Day 55): 57 IU/L; Bilirubin ([2]; Day 55): 0.17 mg/dL; ALT ([2]; Day −5): 42 IU/L; AST ([2]; Day −5): 45 IU/L; Bilirubin ([2]; Day −5): 0.22 mg/dL; ALT ([2]; Day −14): 48 IU/L; AST ([2]; Day −14): 62 IU/L; Bilirubin ([2]; Day −14): 0.26 mg/dL
445522 (antisense eG*e[5mC]*eA*e[5mC]*eA*dG*dT*dT*dT*d[5mC]*dT*dG*dG*e[5mC]*eA*eG*eG*e[5mC]) [compound 445522] | – | – | – | – | – | – | – | – | – | – | – | – | – | – | – | – | – | – | – | – | Inhibition of Factor 11 protein relative to the PBS control (percentage reduction) (Factor 11 protein; Day 10, plasma): 36%; Inhibition of Factor 11 protein relative to the PBS control (percentage reduction) (Factor 11 protein; Day 17, plasma): 50%; Inhibition of Factor 11 protein relative to the PBS control (percentage reduction) (Factor 11 protein; Day 24, plasma): 61%; Inhibition of Factor 11 protein relative to the PBS control (percentage reduction) (Factor 11 protein; Day 31, plasma): 70%; Inhibition of Factor 11 protein relative to the PBS control (percentage reduction) (Factor 11 protein; Day 38, plasma): 73%; Inhibition of Factor 11 protein relative to the PBS control (percentage reduction) (Factor 11 protein; Day 45, plasma): 77%; Inhibition of Factor 11 protein relative to the PBS control (percentage reduction) (Factor 11 protein; Day 52, plasma): 80%; Inhibition of Factor 11 protein relative to the PBS control (percentage reduction) (Factor 11 protein; Day 55, plasma): 82%; Inhibition of Factor 11 protein relative to the PBS control (percentage reduction) (Factor 11 protein; Day −5, plasma): 0%; Inhibition of Factor 11 protein relative to the PBS control (percentage reduction) (Factor 11 protein; Day −14, plasma): 2%; % inhibition of Factor 11 mRNA in liver relative to the PBS control (Factor 11 mRNA): 89%
ISIS 445522: 5-8-5 or 6-8-6 MOE microwalk gapmer (Table 44) (antisense eG*e[5mC]*eA*e[5mC]*eA*dG*dT*dT*dT*d[5mC]*dT*dG*dG*e[5mC]*eA*eG*eG*e[5mC]) | time-dependent decrease in protein levels | significant reduction of Factor 11 mRNA | 83 | 341 | 2 | 100 | 592 | 63 | 22 | 16154 | 18 | 172 | 188 | 5 | 32 | 297 | 27 | 22 | 3477 | 16 | ALT ([2]; Day 31): 40 IU/L; AST ([2]; Day 31): 46 IU/L; Bilirubin ([2]; Day 31): 0.14 mg/dL; ALT ([2]; Day 55): 60 IU/L; AST ([2]; Day 55): 79 IU/L; Bilirubin ([2]; Day 55): 0.18 mg/dL; ALT ([2]; Day −5): 45 IU/L; AST ([2]; Day −5): 47 IU/L; Bilirubin ([2]; Day −5): 0.20 mg/dL; ALT ([2]; Day −14): 43 IU/L; AST ([2]; Day −14): 62 IU/L; Bilirubin ([2]; Day −14): 0.24 mg/dL
ISIS 416858: MOE gapmer, nucleobases 1275 to 1318 of SEQ ID NO: 1 (Table 8) (antisense ACGGCATTGGTGCACAGTTT; MOE gapmer, wing and gap sizes not given here) | time-dependent decrease in protein levels | significant reduction of Factor 11 mRNA | 9 | 28 | 1 | 167 | 512 | 47 | 11 | 5925 | 15 | 32 | 103 | 0 | 224 | 328 | 37 | 11 | 6521 | 4 | ALT ([2]; Day 31): 46 IU/L; AST ([2]; Day 31): 60 IU/L; Bilirubin ([2]; Day 31): 0.16 mg/dL; ALT ([2]; Day 55): 58 IU/L; AST ([2]; Day 55): 69 IU/L; Bilirubin ([2]; Day 55): 0.16 mg/dL; ALT ([2]; Day −5): 66 IU/L; AST ([2]; Day −5): 100 IU/L; Bilirubin ([2]; Day −5): 0.23 mg/dL; ALT ([2]; Day −14): 43 IU/L; AST ([2]; Day −14): 64 IU/L; Bilirubin ([2]; Day −14): 0.25 mg/dL
445531 (antisense eG*eG*e[5mC]*eA*eT*dT*dG*dG*dT*dG*d[5mC]*dA*d[5mC]*eA*eG*eT*eT*eT) [compound 445531] | – | – | – | – | – | – | – | – | – | – | – | – | – | – | – | – | – | – | – | – | Inhibition of Factor 11 protein relative to the PBS control (percentage reduction) (Factor 11 protein; Day 10, plasma): 9%; Inhibition of Factor 11 protein relative to the PBS control (percentage reduction) (Factor 11 protein; Day 17, plasma): 22%; Inhibition of Factor 11 protein relative to the PBS control (percentage reduction) (Factor 11 protein; Day 24, plasma): 23%; Inhibition of Factor 11 protein relative to the PBS control (percentage reduction) (Factor 11 protein; Day 31, plasma): 27%; Inhibition of Factor 11 protein relative to the PBS control (percentage reduction) (Factor 11 protein; Day 38, plasma): 29%; Inhibition of Factor 11 protein relative to the PBS control (percentage reduction) (Factor 11 protein; Day 45, plasma): 32%; Inhibition of Factor 11 protein relative to the PBS control (percentage reduction) (Factor 11 protein; Day 52, plasma): 32%; Inhibition of Factor 11 protein relative to the PBS control (percentage reduction) (Factor 11 protein; Day 55, plasma): 37%; Inhibition of Factor 11 protein relative to the PBS control (percentage reduction) (Factor 11 protein; Day −5, plasma): 1%; Inhibition of Factor 11 protein relative to the PBS control (percentage reduction) (Factor 11 protein; Day −14, plasma): 0%; % inhibition of Factor 11 mRNA in liver relative to the PBS control (Factor 11 mRNA): 66%
ISIS 449709: 3-8-3, 4-8-4, 2-10-2, 3-10-3 or 4-10-4 MOE microwalk gapmer (Table 46) (antisense eG*e[5mC]*eA*e[5mC]*dA*dG*dT*dT*dT*d[5mC]*dT*dG*dG*d[5mC]*eA*eG*eG*e[5mC]) | time-dependent decrease in protein levels | significant reduction of Factor 11 mRNA | 25 | 181 | 0 | 254 | 507 | 47 | 17 | 8958 | 8 | 37 | 137 | 1 | 34 | 290 | 14 | 13 | 2471 | 9 | ALT ([2]; Day 31): 65 IU/L; AST ([2]; Day 31): 45 IU/L; Bilirubin ([2]; Day 31): 0.15 mg/dL; ALT ([2]; Day 55): 102 IU/L; AST ([2]; Day 55): 71 IU/L; Bilirubin ([2]; Day 55): 0.18 mg/dL; ALT ([2]; Day −5): 77 IU/L; AST ([2]; Day −5): 51 IU/L; Bilirubin ([2]; Day −5): 0.19 mg/dL; ALT ([2]; Day −14): 73 IU/L; AST ([2]; Day −14): 62 IU/L; Bilirubin ([2]; Day −14): 0.24 mg/dL

— patent US20230263822A1, “MODULATION OF FACTOR 11 EXPRESSION” (Ionis Pharmaceuticals, Inc., priority 2008, published 2023)
